Tested on: Schaffer collateral (SC)-CA1 synapse of the hippocampus
Assay: fEPSP recording in hippocampal SC-CA1 synapse (hippocampal slices)
Assay type: cell-based, mouse
Conditions: 10 μM, applied after SYR
Method: A hippocampus slice (400 μm thick) was prepared in a cold dissection buffer using a vibrating machine (Vibratome, Leica, Germany) and then a CA3 region of each slice was removed surgically immediately after the slice formation. In this connection, the cold dissection buffer contained sucrose 230 mM; NaHCO3 25 mM; KCl 2.5 mM; NaH2PO4 1.25 mM; D-glucose 10 mM; Na-ascorbic acid salt 1.3 mM; MgCl2 3 mM; CaCl2 0.5 mM, 95% O2/5% CO2 and had pH 7.4. The slice was recovered in a normal ACSF (artificial cerebrospinal fluid) for 1 hour and then maintained at room temperature (23 to 25° C.) until recording. […] All electrophysiological experiments were performed in a recording chamber while the samples were immersed in the solution in a manner described previously (Song et al., 2017). Signals were amplified using a MultiClamp 700B amplifier (Molecular Devices, CA, USA) at a cut-off frequency of 2.8 kHz and were measured with a Digidata 1440A interface (Molecular Devices) at a 10 kHz sampling frequency. Data were collected using pClamp 10.2 (Molecular Devices) software. The collected data were analyzed with a program created in the lab using Igor Pro (WaveMetrics, OR, USA). To record the field excitatory post-synaptic potential (fEPSP) in the hippocampal SC-CA1 synapse, hippocampal slices were placed in the recording chamber and perfused with ACSF while oxygen was fed continuously to the ACSF. The ACSF was maintained at a temperature of 29 to 30° C. using a heater for perfusion (SH-27B, Warner Instruments, CT, USA). A synapse response was induced by stimulation with a glass pipette (0.3 to 0.5 Mohm) every 20 seconds (0.05 Hz). The synapse response was recorded using a glass pipette (3 to 4 Mohm) filled with ACSF. The intensity of the stimulus was adjusted to produce a synapse response of about ⅓ of the maximum value thereof. The slices with unstable (10%) baseline records were excluded. To investigate the effect of syringaresinol (SYR) on the synaptic transmission, the field excitatory post-synaptic potential (fEPSP) of the Schaffer collateral (SC)-CA1 synapse of the hippocampus of adult mice (4 to 6 weeks of age) was measured. After confirming the stable baseline, different concentrations of SYR were applied thereto using the perfusion solution.

In the case of `NS(=O)(=O)c1cccc2c1c([N+](=O)[O-])cc1nc(O)c(O)nc12` [NBQX, reference compound], the “block of the synaptic response (fEPSP)” value is reported as “completely blocked”.
